Assay [1] deals with barnyard grass. Kind of assay: Test Example 4: herbicidal effect by soil treatment (Table 19, symbol H). Particulars: 320 g/ha. Type of assay: in vivo, barnyard grass (Echinochloa crus-galli). A digest of the protocol:
(§1)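 Three weeks of greenhouse growth at 25° C. to 30° C. followed a uniform surface spray of water-diluted emulsion at a predetermined herbicide amount. Seeds had been sown beforehand under about 1.5 cm of sterilized diluvial soil. Grading followed criteria set out in an earlier test.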

In assay [2] the test system is late watergrass. Kind of assay: Test Example 2: herbicidal activity, application during weed generation under submerged conditions (Table 17, symbol A). Particulars: AAH 320 g/ha; application during weed generation, submerged conditions. The assay is classed as in vivo, late watergrass (Echinochloa oryzicola). A digest of the protocol: (§2)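 In this pot test, flooded alluvial soil (water depth 4 cm) holds all three species sown as a mixture. Once seedlings have one to two leaves, the compound's emulsion, thinned with water to the intended dose, is poured on the water; grading follows after three weeks on the earlier criteria.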

Assay [3] relates to velvetleaf. Kind of assay: Test Example 5: herbicidal effect by foliage application, plastic box (Table 20, symbol M). Particulars: foliage application, 320 g/ha, 3 weeks after application. The assay is classed as in vivo, velvetleaf (Abutilon theophrasti). The method in brief: (§3)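 Plants sown in sterilized diluvial soil and grown 14 days in a greenhouse at 25° C to 30° C, then sprayed on the foliage with the compound's emulsion diluted in water to a predetermined herbicide amount. Injury to weeds and crops scored three weeks after application on a visual rating scale.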

Assay [4] relates to wild oat. Briefly: Test Example 5: herbicidal effect by foliage application, plastic box (Table 20, symbol I). Type of assay: in vivo, wild oat (Avena fatua). Particulars: foliage application, 320 g/ha, 3 weeks after application. The method in brief: as §3
The test system of assay [5] is velvetleaf. Kind of assay: Test Example 4: herbicidal effect by soil treatment (Table 19, symbol M). Particulars: 320 g/ha. Type of assay: in vivo, velvetleaf (Abutilon theophrasti). A digest of the protocol: as §1
Assay [6] deals with green foxtail. Kind of assay: Test Example 5: herbicidal effect by foliage application, plastic box (Table 20, symbol G). The assay is classed as in vivo, green foxtail (Setaria viridis). Particulars: foliage application, 320 g/ha, 3 weeks after application. A digest of the protocol:
as §3

Assay [7] relates to windgrass. Briefly: Test Example 5: herbicidal effect by foliage application, plastic box (Table 20, symbol L). Particulars: foliage application, 320 g/ha, 3 weeks after application. The assay is classed as in vivo, windgrass (Apera spica-venti). The method in brief:
as §3

The subject of assay [8] is blackgrass. Kind of assay: Test Example 5: herbicidal effect by foliage application, plastic box (Table 20, symbol J). Type of assay: in vivo, blackgrass (Alopecurus myosuroides). Particulars: foliage application, 320 g/ha, 3 weeks after application. A digest of the protocol:
as §3

In assay [9] the test system is southern crabgrass. Briefly: Test Example 4: herbicidal effect by soil treatment (Table 19, symbol F). Particulars: 320 g/ha. Type of assay: in vivo, southern crabgrass (Digitaria ciliaris). A digest of the protocol:
as §1

Assay [10] relates to barnyard grass. Briefly: Test Example 3: herbicidal effect by foliage application, Wagner pot (Table 18, symbol H). Type of assay: in vivo, barnyard grass (Echinochloa crus-galli). Particulars: 320 g/ha. A digest of the protocol:
(§4)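 Plants were sown in alluvial soil held under 0.1–0.5 cm standing water and grown 14 days in a greenhouse at 25–30 °C. An emulsifiable formulation, water-diluted to the set dose, was then sprayed onto the foliage, and effects were scored three weeks later using previously defined criteria.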

Assay [11] concerns persian speedwell. Kind of assay: Test Example 5: herbicidal effect by foliage application, plastic box (Table 20, symbol R). The assay is classed as in vivo, Persian speedwell (Veronica persica). Particulars: foliage application, 320 g/ha, 3 weeks after application. A digest of the protocol:
as §3

The subject of assay [12] is Italian ryegrass. Briefly: Test Example 5: herbicidal effect by foliage application, plastic box (Table 20, symbol K). Type of assay: in vivo, Italian ryegrass (Lolium multiflorum). Particulars: foliage application, 320 g/ha, 3 weeks after application. The method in brief:
as §3

Assay [13] concerns wild oat. Briefly: Test Example 4: herbicidal effect by soil treatment (Table 19, symbol I). Type of assay: in vivo, wild oat (Avena fatua). Particulars: 320 g/ha. The method in brief:
as §1

Assay [14] has as its system Italian ryegrass. Kind of assay: Test Example 4: herbicidal effect by soil treatment (Table 19, symbol K). The assay is classed as in vivo, Italian ryegrass (Lolium multiflorum). Particulars: 320 g/ha. A digest of the protocol:
as §1

For assay [15], the system named is redroot pigweed. Briefly: Test Example 4: herbicidal effect by soil treatment (Table 19, symbol N). Particulars: 320 g/ha. The assay is classed as in vivo, redroot pigweed (Amaranthus retroflexus). A digest of the protocol:
as §1

Assay [16] has as its system Japanese bulrush. Kind of assay: Test Example 2: herbicidal activity, application during weed generation under submerged conditions (Table 17, symbol B). The assay is classed as in vivo, Japanese bulrush (Schoenoplectus juncoides). Particulars: AAH 320 g/ha; application during weed generation, submerged conditions. A digest of the protocol: as §2
Assay [17] has as its system rice flat sedge. Briefly: Test Example 3: herbicidal effect by foliage application, Wagner pot (Table 18, symbol E). The assay is classed as in vivo, rice flat sedge (Cyperus iria). Particulars: 320 g/ha. The method in brief: as §4
Assay [18] concerns lambsquarters. Kind of assay: Test Example 4: herbicidal effect by soil treatment (Table 19, symbol O). The assay is classed as in vivo, lambsquarters (Chenopodium album). Particulars: 320 g/ha. The method in brief: as §1
Assay [19] concerns chickweed. Briefly: Test Example 4: herbicidal effect by soil treatment (Table 19, symbol P). Particulars: 320 g/ha. The assay is classed as in vivo, common chickweed (Stellaria media). A digest of the protocol:
as §1

Assay [20] deals with green foxtail. Briefly: Test Example 4: herbicidal effect by soil treatment (Table 19, symbol G). The assay is classed as in vivo, green foxtail (Setaria viridis). Particulars: 320 g/ha. The method in brief:
as §1

The results in this text go back to patent US20230085307A1, “PYRIDAZINONE COMPOUND AND HERBICIDE” (NISSAN CHEMICAL CORPORATION, priority 2019, published 2023).

Turning to `CCCC(=O)Oc1c(C)nn(C)c(=O)c1-c1c(-c2ccc(CC)cc2)sc2ccc(F)cc12` [2-016], in assay [1], the “herbicidal effect rating, H: barnyard grass” value (“herbicidal effect rating, H” below) is 1 (Herbicidal rate of 5% or more and less than 20%). Besides, in [2], the “herbicidal effect rating, A: late watergrass” value is 3 (Herbicidal rate of 40% or more and less than 70%). The “effect on velvetleaf (M)” value in [3] was 5 (Herbicidal rate of 90% or more (almost completely withered)). For the same compound, in [4], the “effect on wild oat (I)” value was 3 (Herbicidal rate of 40% or more and less than 70%). Moreover, the “herbicidal effect rating, M: velvetleaf” value in assay [5] was 3 (Herbicidal rate of 40% or more and less than 70%). For the same compound, the “effect on green foxtail (G)” value in assay [6] is 0 (Herbicidal rate of 5% or less (almost no effect)). The “effect on windgrass (L)” value in assay [7] was 5 (Herbicidal rate of 90% or more (almost completely withered)). For the same compound, the “effect on blackgrass (J)” value in assay [8] is 1 (Herbicidal rate of 5% or more and less than 20%). Further, the “herbicidal effect rating, F: southern crabgrass” value (shortened to “herbicidal effect rating, F”) in assay [9] was 0 (Herbicidal rate of 5% or less (almost no effect)). For the same compound, the “herbicidal effect on H (barnyard grass), rating 0-5” value (“herbicidal effect on H” for short) in assay [10] is on record as 5 (Herbicidal rate of 90% or more (almost completely withered)). The “effect on persian speedwell (R)” value in assay [11] is listed as 5 (Herbicidal rate of 90% or more (almost completely withered)). Also, in assay [12], the “effect on Italian ryegrass (K)” value was 5 (Herbicidal rate of 90% or more (almost completely withered)). Further, the “herbicidal effect rating, I: wild oat” value in assay [13] is reported as 0 (Herbicidal rate of 5% or less (almost no effect)). Further, in assay [14], the “herbicidal effect rating, K: Italian ryegrass” value (“herbicidal effect rating, K” for short) is 3 (Herbicidal rate of 40% or more and less than 70%). Further, the “herbicidal effect rating, N: redroot pigweed” value (“herbicidal effect rating, N” below) in assay [15] is recorded as 5 (Herbicidal rate of 90% or more (almost completely withered)). For the same compound, the “herbicidal effect rating, B: Japanese bulrush” value (“herbicidal effect rating, B” for short) in assay [16] is 4 (Herbicidal rate of 70% or more and less than 90%). Besides, the “herbicidal effect on E (rice flat sedge), rating 0-5” value (“herbicidal effect on E” below) in assay [17] was 5 (Herbicidal rate of 90% or more (almost completely withered)). Besides, the “herbicidal effect rating, O: lambsquarters” value (from here on “herbicidal effect rating, O”) in assay [18] is reported as 5 (Herbicidal rate of 90% or more (almost completely withered)). For the same compound, in [19], the “herbicidal effect rating, P: chickweed” value was 1 (Herbicidal rate of 5% or more and less than 20%). Besides, the “herbicidal effect rating, G: green foxtail” value (from here on “herbicidal effect rating, G”) in assay [20] is 0 (Herbicidal rate of 5% or less (almost no effect)).
As to `C=Cc1ccc(-c2sc3ccc(F)cc3c2-c2c(O)c(C)nn(C)c2=O)cc1` [2-018], in assay [1], the “herbicidal effect rating, H” value is given as 0 (Herbicidal rate of 5% or less (almost no effect)). Moreover, the “herbicidal effect rating, A: late watergrass” value in [2] is 3 (Herbicidal rate of 40% or more and less than 70%). Moreover, the “effect on velvetleaf (M)” value in [3] is reported as 5 (Herbicidal rate of 90% or more (almost completely withered)). Also, the “effect on wild oat (I)” value in assay [4] was 5 (Herbicidal rate of 90% or more (almost completely withered)). Further, the “herbicidal effect rating, M: velvetleaf” value in assay [5] was 1 (Herbicidal rate of 5% or more and less than 20%). Further, the “effect on green foxtail (G)” value in assay [6] is given as 5 (Herbicidal rate of 90% or more (almost completely withered)). Moreover, the “effect on windgrass (L)” value in assay [7] was 5 (Herbicidal rate of 90% or more (almost completely withered)). Besides, in assay [8], the “effect on blackgrass (J)” value was 1 (Herbicidal rate of 5% or more and less than 20%). Moreover, the “herbicidal effect rating, F” value in assay [9] is 0 (Herbicidal rate of 5% or less (almost no effect)). Besides, the “herbicidal effect on H” value in assay [10] was 5 (Herbicidal rate of 90% or more (almost completely withered)). Moreover, the “effect on persian speedwell (R)” value in assay [11] was 5 (Herbicidal rate of 90% or more (almost completely withered)). The “effect on Italian ryegrass (K)” value in assay [12] is 4 (Herbicidal rate of 70% or more and less than 90%). Also, the “herbicidal effect rating, I: wild oat” value in assay [13] was 0 (Herbicidal rate of 5% or less (almost no effect)). For the same compound, in assay [14], the “herbicidal effect rating, K” value is 4 (Herbicidal rate of 70% or more and less than 90%). Moreover, the “herbicidal effect rating, N” value in assay [15] is 4 (Herbicidal rate of 70% or more and less than 90%). Further, the “herbicidal effect rating, B” value in assay [16] was 2 (Herbicidal rate of 20% or more and less than 40%). In addition, the “herbicidal effect on E” value in assay [17] is listed as 5 (Herbicidal rate of 90% or more (almost completely withered)). The “herbicidal effect rating, O” value in assay [18] is 4 (Herbicidal rate of 70% or more and less than 90%). Also, the “herbicidal effect rating, P: chickweed” value in [19] was 3 (Herbicidal rate of 40% or more and less than 70%). The “herbicidal effect rating, G” value in assay [20] was 1 (Herbicidal rate of 5% or more and less than 20%).
For `COCc1ccc(-c2sc3ccc(F)cc3c2-c2c(O)c(C)nn(C)c2=O)cc1` [2-022], the “herbicidal effect rating, H” value in assay [1] is 5 (Herbicidal rate of 90% or more (almost completely withered)). In addition, the “herbicidal effect rating, A: late watergrass” value in assay [2] is 2 (Herbicidal rate of 20% or more and less than 40%). Moreover, in assay [3], the “effect on velvetleaf (M)” value is given as 5 (Herbicidal rate of 90% or more (almost completely withered)). Besides, the “effect on wild oat (I)” value in assay [4] was 3 (Herbicidal rate of 40% or more and less than 70%). In addition, the “herbicidal effect rating, M: velvetleaf” value in assay [5] is 4 (Herbicidal rate of 70% or more and less than 90%). In addition, in assay [6], the “effect on green foxtail (G)” value was 5 (Herbicidal rate of 90% or more (almost completely withered)). Moreover, the “effect on windgrass (L)” value in [7] was 4 (Herbicidal rate of 70% or more and less than 90%). Also, the “effect on blackgrass (J)” value in assay [8] was 4 (Herbicidal rate of 70% or more and less than 90%). In assay [9], the “herbicidal effect rating, F” value is 3 (Herbicidal rate of 40% or more and less than 70%). In [10], the “herbicidal effect on H” value is listed as 5 (Herbicidal rate of 90% or more (almost completely withered)). The “effect on persian speedwell (R)” value in [11] is listed as 5 (Herbicidal rate of 90% or more (almost completely withered)). Further, the “effect on Italian ryegrass (K)” value in assay [12] is on record as 5 (Herbicidal rate of 90% or more (almost completely withered)). The “herbicidal effect rating, I: wild oat” value in assay [13] is reported as 0 (Herbicidal rate of 5% or less (almost no effect)). Besides, the “herbicidal effect rating, K” value in assay [14] is listed as 5 (Herbicidal rate of 90% or more (almost completely withered)). In assay [15], the “herbicidal effect rating, N” value is given as 5 (Herbicidal rate of 90% or more (almost completely withered)). The “herbicidal effect rating, B” value in assay [16] was 2 (Herbicidal rate of 20% or more and less than 40%). In addition, the “herbicidal effect on E” value in [17] is 4 (Herbicidal rate of 70% or more and less than 90%). For the same compound, in assay [18], the “herbicidal effect rating, O” value was 4 (Herbicidal rate of 70% or more and less than 90%). Moreover, the “herbicidal effect rating, P: chickweed” value in assay [19] is 3 (Herbicidal rate of 40% or more and less than 70%). In addition, the “herbicidal effect rating, G” value in assay [20] is on record as 5 (Herbicidal rate of 90% or more (almost completely withered)).
